The values below come from patent US20250129103A1, “METHODS FOR TREATMENT OF CANCER” (Frontier Medicines Corporation, priority 2022, published 2025).

SMILES strings stand for the structures. Values after ≈ are worked out from the molar mass of the structure shown.

The target of data set [1] is KRAS G12C (GMPPNP-loaded) and PI3Ka (Ras-binding domain) interaction (Homo sapiens (Human), UniProt P01116, C118S/C51S/C80L/G12C). The experiment in a line: Inhibition of KRAS G12C and PI3Ka binding (AlphaScreen). To be noted: KRAS G12C loaded with GMPPNP, PI3Ka RBD, 2 hours preincubation; read-out: PI3K RBD K-Ras IC50. As for the experimental part: The AlphaScreen technology was used to determine IC50S for compound inhibition of KRAS G12C (present as the Cys-light (C51S, C80L and C118S), truncated version comprising amino acids 1-169) and PI3Ka interaction. Compounds were diluted in 100% DMSO and each compound concentration was spotted at 200 nl/well onto low volume, white 384 well plates. The KRAS G12C contained a biotin-AviTag and the PI3Ka, as Ras-binding domain (amino acids 157-300, RBD), was His-tagged. KRAS G12C was preloaded with the GTP analogue Guanosine 5′-[β,γ-imido]triphosphate (GMPPNP). The KRAS G12C was diluted in 25 mM Hepes, pH 7.4, 150 mM NaCl, 5 mM MgCl2, 0.01% TritonX-100 and 10 μM GMPPNP and added at 10 ul/well to compound-spotted plates resulting in a DMSO concentration of 2%. Plates were incubated for 2 hours. A mixture of RBD and the AlphaScreen streptavidin donor and nickel chelate acceptor beads diluted in 25 mM Hepes, pH 7.4, 150 mM NaCl, 5 mM MgCl2, 0.01% TritonX-100 and 2% DMSO was then added at 10 ul/well and incubated for 60-90 minutes before the samples were read for emission at 570 nm after excitation of the donor beads at 680 nm. All incubations were performed at room temperature. The final top compound concentration was 50 μM with 1:3 titrations for 10-point dose response curves. Final assay conditions were 1.5 nM KRAS G12C, 100 nM RBD, 1.25 ug/ml of AlphaScreen donor beads and 10 μg/ml AlphaLISA acceptor beads. IC50s were determined using nonlinear regression fit of [inhibitor] vs. response (4 parameters). […]

Data set [2] can be described thus: Determination of kinetic solubility (pH 7.4). The format is physicochemical. The conditions noted are these: phosphate buffer, pH 7.4, aqueous buffer, kinetic from dmso stock, 50 mM phosphate buffer pH 7.4, read-out: Ksol, pH 7.4. The method, boiled down: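 Solubility taken from filtrate peak areas on a calibration curve (HPLC-UV, LC-MS/MS). Before filtration and centrifugation, compound was shaken for 2 h at room temperature in pH 7.4 50 mM phosphate buffer.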

The target of data set [3] is KRAS G12C (GMPPNP-loaded) and cRAF (Ras-binding domain) interaction (Homo sapiens (Human), UniProt P01116, C118S/C51S/C80L/G12C). The experiment in a line: Inhibition of KRAS G12C and cRAF binding (AlphaScreen). The conditions noted are these: KRAS G12C loaded with GMPPNP, cRaf RBD, 2 hours preincubation; read-out: Raf-1 RBD K-Ras IC50. The procedure, abridged:
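AlphaScreen readout (680 nm excitation, 570 nm emission) of RBD binding after a 60-90 min bead step at room temperature. This step follows 2 h compound exposure of GMPPNP-preloaded KRAS G12C in Hepes pH 7.4 buffer with MgCl2 and 10 μM GMPPNP.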
(In Alpha technology, singlet oxygen from a donor bead excites a nearby acceptor bead.)

Data set [4] in a line: Determination of logD (1-octanol / phosphate buffer pH 7.4). The format is physicochemical. The conditions noted are these: 1-octanol/phosphate buffer, pH 7.4, pH 7.4, 1-octanol/phosphate buffer; read-out: Log D, pH 7.4. The procedure, abridged: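 Each phase analysed by LCMS after 1 h shaking at 800 rpm and centrifugation, room temperature. Phases were mutually saturated 1-octanol and 100 mM phosphate buffer at pH 7.4. LogD derived from the phase concentrations.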

KRAS G12C (GMPPNP-loaded) and cRAF (Ras-binding domain) interaction, sequence (P01116 other isoform, or with tags, fused parts or gaps G12C/C51S/C80L/C118S): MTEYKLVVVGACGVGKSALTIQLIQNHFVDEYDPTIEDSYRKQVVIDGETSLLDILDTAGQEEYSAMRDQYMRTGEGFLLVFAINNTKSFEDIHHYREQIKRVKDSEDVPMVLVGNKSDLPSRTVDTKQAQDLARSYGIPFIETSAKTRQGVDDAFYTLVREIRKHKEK
KRAS G12C (GMPPNP-loaded) and PI3Ka (Ras-binding domain) interaction, sequence (P01116 other isoform, or with tags, fused parts or gaps G12C/C51S/C80L/C118S): as above

Take `CCc1noc(/C=C/C(=O)N2CCN(c3nc(OCC45CCCN4CCC5)nc4c(F)c(-c5cccc6cccc(Cl)c56)ncc34)C[C@@H]2CC#N)n1` [Compound 26]: the IC50 in data set [1] and in data set [3] was 0.1 to 0.5 µM in each case. Also, the solubility kinetic at 2 h in data set [2] was 80.2 µg/mL (≈ 111 µM). In addition, the logD in data set [4] was 2.66.
For the compound `CC(C)(C)c1noc(/C=C/C(=O)N2CCN(c3nc(OCC45CCCN4CCC5)nc4c3CCN(c3cccc5cccc(Cl)c35)C4)C[C@@H]2CC#N)n1` [Compound 30], the IC50 in data set [1] and in data set [3] was 0.01 to 0.1 µM in each case. The solubility kinetic at 2 h in data set [2] worked out at 2.33 µg/mL (≈ 3.16 µM). Besides, the logD in data set [4] was found to be 3.09.
In the case of `CC(C)(C)c1noc(/C=C/C(=O)N2CCN(c3nc(OC[C@@]45CCCN4C[C@H](F)C5)nc4c3CCN(c3cccc5cccc(Cl)c35)C4)C[C@@H]2CC#N)n1` [Compound 31], the IC50 in data set [1] and in data set [3] was 0.01 to 0.1 µM each time. Moreover, the solubility kinetic at 2 h in data set [2] was determined as 0.01 µg/mL (≈ 0.0133 µM). The logD in data set [4] turned out to be 4.35.
On to `N#CC[C@H]1CN(c2nc(OC[C@@]34CCCN3C[C@H](F)C4)nc3c(F)c(-c4cccc5cccc(Cl)c45)ncc23)CCN1C(=O)/C=C/CN1CCOCC1` [Compound 48], for which the IC50 in data set [1] and in data set [3] was 0.01 to 0.1 µM throughout. Besides, in data set [2], the solubility kinetic at 2 h was 110 µg/mL (≈ 148 µM). Moreover, the logD in data set [4] is 2.71.
In the case of `N#CC[C@H]1CN(c2nc(OC[C@@]34CCCN3C[C@H](F)C4)nc3c2CCN(c2cccc4cccc(Cl)c24)C3)CCN1C(=O)/C=C/CN1CCOCC1` [Compound 49], the half-maximal inhibitory concentration (IC50) in data set [1] and in data set [3] was under 0.01 µM each time. Also, the solubility kinetic at 2 h in data set [2] was determined as 45.2 µg/mL (≈ 62 µM). Moreover, the logD in data set [4] was found to be 3.72.
For the compound `N#CC[C@H]1CN(c2nc(OCC34CCCN3CCC4)nc3c2CCN(c2cccc4ccc(F)c(Cl)c24)C3)CCN1C(=O)/C=C/CN1CCOCC1` [Compound 50], the 50% inhibitory concentration (IC50) in data set [1] and in data set [3] was under 0.01 µM in each case. Moreover, in data set [2], the solubility kinetic at 2 h was found to be 124 µg/mL (≈ 171 µM). Also, the logD in data set [4] is 2.27.
In the case of `N#CC[C@H]1CN(c2nc(OC[C@@]34CCCN3C[C@H](F)C4)nc3c2CCN(c2cccc4ccc(F)c(Cl)c24)C3)CCN1C(=O)/C=C/CN1CCOCC1` [Compound 52], the IC50 in data set [1] and in data set [3] was under 0.01 µM each time. Moreover, the solubility kinetic at 2 h in data set [2] worked out at 23.8 µg/mL (≈ 31.8 µM). Also, the logD in data set [4] worked out at 3.8.
On to `N#CC[C@H]1CN(c2nc(OC[C@@]34CCCN3C[C@H](F)C4)nc3c(F)c(-c4cccc5ccc(F)c(Cl)c45)ncc23)CCN1C(=O)/C=C/CN1CCOCC1` [Compound 53], for which the 50% inhibitory concentration (IC50) in data set [1] and in data set [3] was under 0.01 µM in each case. For the same compound, the solubility kinetic at 2 h in data set [2] is 111 µg/mL (≈ 146 µM). Besides, the logD in data set [4] is 2.82.
For the compound `CN1CCC1/C=C/C(=O)N1CCN(c2nc(OC[C@@]34CCCN3C[C@H](F)C4)nc3c(F)c(-c4cccc5ccc(F)c(Cl)c45)ncc23)C[C@@H]1CC#N` (some centres unmarked) [Compound 54], the IC50 in data set [1] and in data set [3] was under 0.01 µM each time. For the same compound, the solubility kinetic at 2 h in data set [2] stood at 135 µg/mL (≈ 185 µM). Besides, the logD in data set [4] was 2.59.
Turning to `Cc1cc(N)nc(-c2ncc3c(N4CCN(C(=O)/C=C/CN5CCOCC5)[C@@H](CC#N)C4)nc(OC[C@@]45CCCN4C[C@H](F)C5)nc3c2F)c1C(F)(F)F` [Compound 55], the IC50 in data set [1] and in data set [3] was 0.01 to 0.1 µM each time. Further, the solubility kinetic at 2 h in data set [2] was found to be 128 µg/mL (≈ 169 µM). Also, in data set [4], the logD worked out at 1.53.
In the case of `CCO[C@H]1CCN(C/C=C/C(=O)N2CCN(c3nc(OC[C@@]45CCCN4C[C@H](F)C5)nc4c(F)c(-c5cccc6cccc(Cl)c56)ncc34)C[C@@H]2CC#N)C1` [Compound 91, 2-((S)-4-(7-(8-chloronaphthalen-1-yl)-8-fluoro-2-(((2R,7aS)-2-fluorohexahydro-1H-pyrrolizin-7a-yl)methoxy)pyrido[4,3-d]pyrimidin-4-yl)-1-((E)-4-((S)-3-ethoxypyrrolidin-1-yl)but-2-enoyl)piperazin-2-yl)acetonitrile], the half-maximal inhibitory concentration (IC50) in data set [1] and in data set [3] was under 0.01 µM throughout. In addition, in data set [2], the solubility kinetic at 2 h was determined as 110 µg/mL (≈ 143 µM). For the same compound, the logD in data set [4] is 1.83.
